This assay concerns A673 Ewing sarcoma viability, CellTiter-Glo ATP luminescence, 72 h. Kind of assay: A673 Ewing sarcoma viability loss – cell-based, CellTiter-Glo luminescence, cherry-pick retest, confirmation (AID 720587). Background: ATP-based viability assays read luminescence as a measure of living cells.

In the case of `Cc1nc2ncccn2c1-c1csc(Nc2ccc(O)cc2)n1`, the AC35 was 1.35 µM.

Regarding `CCc1nc(N)nc(N)c1-c1ccc(Cl)c(N=[N+]=[N-])c1`, the AC35 is 7.14 µM.

Turning to `OCC1OC(n2ccc3c2ncn2ncnc32)C(O)C1O` (configuration not stated), the AC35 was 0.693 µM.

In the case of `COc1ccccc1C(CCNCc1ccc(N(C)C)cc1)c1ccc(OC(C)C)cc1` (configuration not stated), the AC35 was 4.19 µM.

As for `C[C@@H]1CN([C@@H](C)CO)C(=O)c2cc(N(C)C)ccc2O[C@H]1CN(C)Cc1ccc(C(=O)Nc2ccccc2N)cc1`, the AC35 was 13.2 µM.

On to `Cc1ccc2c(c1)C(=O)N1[C@H]3c4cc(Br)ccc4OC[C@@H]3[C@H](c3ccccc3)[C@]1(C)C(=O)N2`, for which the AC35 is 14.5 µM.

For the compound `COc1cc(-c2noc(C)c2C#Cc2nccn2C)cc(OC)c1OC`, the AC35 is 15.9 µM.

In the case of `CC(C)c1ccc(OCc2cccc(C(=O)N/N=C/c3cccnc3)c2)cc1`, the AC35 was 19.4 µM.

With `COCCOC(=O)N1C(=O)[C@@]2(c3cc(C#CCC(C(=O)OC)C(=O)OC)ccc31)[C@H](c1ccccc1OCCO)N1[C@H](c3ccccc3)[C@H](c3ccccc3)OC(=O)[C@H]1[C@@H]2C(=O)N1CCN(c2ncccn2)CC1`, the AC35 is 5.04 µM.

As to `N/C(=C\C(=O)c1cc(Cl)ccc1O)C(Cl)(Cl)Cl`, the AC35 was 4 µM.

For the compound `Cc1c(Cc2ccc3c(c2)OCO3)sc(NC(=O)C(C)(C)C)c1C#N`, the AC35 is 14.9 µM.

As for `COc1cc2c(OC(C)=O)c3c(c(-c4ccc5c(c4)OCO5)c2cc1OC)C(=O)OC3`, the AC35 is 0.0216 µM.

With `COc1ccc(OC)c(-c2nnc3n2N=C(c2ccc(OC)c(OC4CCCC4)c2)CS3)c1`, the AC35 was 2.71 µM.

On to `C[C@@H]1CN([C@H](C)CO)C(=O)Cc2cc(NC(=O)CCCCCC(=O)Nc3ccccc3N)ccc2O[C@@H]1CN(C)CC1CCCCC1`, for which the AC35 was 13.4 µM.

For the compound `CCc1cccc2c(C(=O)CN3C(=O)NC4(CCCCC4)C3=O)c[nH]c12`, the AC35 was 8.95 µM.

On to `Nc1nc(N)c(-c2cccc(C(F)(F)F)c2)c(Cc2cccc(C(F)(F)F)c2)n1`, for which the AC35 is 5.72 µM.

Consider `Cc1ccc(S(=O)(=O)Nc2ccc3c(c2)C(=O)N([C@@H](C)CO)C[C@H](C)[C@@H](CN(C)Cc2ccc(C(F)(F)F)cc2)OCCCC[C@@H](C)O3)cc1`, for which the AC35 is 13.8 µM.

Consider `CN(c1ccc(NC(=O)CCc2c[nH]c3ccccc23)cc1)c1ccccn1`, for which the AC35 was 9.08 µM.

With `CC(C)(C)c1ccc(Oc2ccc(NC(=O)c3ccccc3C(=O)O)cn2)cc1`, the AC35 is 22.2 µM.

For `C[C@H]1CN([C@@H](C)CO)C(=O)Cc2cc(NC(=O)CCCCCC(=O)Nc3ccccc3N)ccc2O[C@H]1CN(C)Cc1ccc(Oc2ccccc2)cc1`, the AC35 was 6.08 µM.

As to `N=c1ccn2c(n1)O[C@H]1[C@H](O)[C@@H](CO)O[C@H]12`, the AC35 is 0.74 µM.

Consider `CN1C2CCC1/C(=C/c1ccccn1)C(=O)/C2=C\c1ccccn1`, for which the AC35 was 0.362 µM.

For `CC12CCC(O)CC1CCC1C2CCC2(C)C(C3=CC(=O)OC3)CCC12O` (configuration not stated), the AC35 was 0.385 µM.

For the compound `C[C@@H]1CN([C@@H](C)CO)C(=O)c2cccc(NC(=O)Nc3cccc4ccccc34)c2O[C@@H]1CN(C)Cc1ccc(C(=O)Nc2ccccc2N)cc1`, the AC35 is 14.8 µM.

With `C[C@@H]1O[C@@H](O[C@@H]2C=C3CCC4C(CC[C@]5(C)[C@@H](c6ccc(=O)oc6)CC[C@]45O)[C@@]3(C)CC2)[C@H](O)[C@H](O)[C@H]1O` (some centres not stated), the AC35 was 0.0136 µM.

Regarding `N#C[C@H]1[C@H](c2ccc(-c3ccccc3F)cc2)[C@@H](CO)N1C(=O)Cc1ccccc1`, the AC35 is 10.2 µM.

As for `C/C(=C\c1ccccc1)C(=O)N1CCC=CC1=O`, the AC35 is 9 µM.

As for `O=C(O)c1ccccc1C(=O)Nc1ccc(Oc2cccc3ccccc23)cc1`, the AC35 was 18.9 µM.

Regarding `O=C1Nc2cc(C(=O)NCCN3CCCCCC3)ccc2S/C1=C\c1ccccc1`, the AC35 is 8.37 µM.

Consider `O=C(NCc1ccc(F)cc1)N1[C@H]2CC[C@@H]1C=C(c1ccc(F)cc1OCc1ccccc1)C2`, for which the AC35 is 1.89 µM.

Regarding `COC1C(C)OC(OC2CC(C)(O)Cc3cc4c(c(O)c32)C(=O)c2c(O)cc3c(c2C4=O)OC2OC3(C)C(O)C(N(C)C)C2O)C(OC)C1(C)OC` (configuration not stated), the AC35 was 0.0582 µM.

With `O=C1NC(=O)N(Cc2ccc(F)cc2)C(=O)/C1=C\C=C\c1ccco1`, the AC35 was 5.3 µM.

Turning to `C[C@]12CC[C@H](O)C[C@H]1CC[C@@H]1[C@@H]2C[C@@H](O)[C@]2(C)[C@@H](C3=CC(=O)OC3)CC[C@]12O`, the AC35 is 1.1 µM.

In the case of `O=C(C1CC1)N1C[C@@H]2N[C@H](C1)C2c1ccc(/C=C/c2ccccc2)cc1` (some centres not stated), the AC35 was 15.2 µM.

Regarding `C[C@H](CO)N1C[C@H](C)[C@H](CN(C)Cc2ccc(Oc3ccccc3)cc2)Oc2ccc(NC(=O)CCCCCC(=O)Nc3ccccc3N)cc2CC1=O`, the AC35 was 4.84 µM.

As for `COc1ccc(C(CCNCc2ccc(OC(C)C)cc2)C(C)C)cc1` (configuration not stated), the AC35 is 12.6 µM.

On to `O=C(Nc1cccc(S(=O)(=O)N2CCCC2)c1)c1ccc(Cl)nc1`, for which the AC35 is 6.28 µM.

Consider `CC(=O)Nc1cccc(-c2ccnc3c2CC(C)(C(=O)NCc2ccc(N(C)C)cc2)O3)c1` (configuration not stated), for which the AC35 was 13.3 µM.

Turning to `C#CCOCCOCCOCCNc1nc(N2CCN(C(=O)CCCCCCCCCCNC(=O)Cn3cc(C[C@@H](C)O)nn3)CC2)nc(N2CCN(C(=O)CCCCCCCCCCNC(=O)[C@H](CO)n3cc(CCCSC)nn3)CC2)n1`, the AC35 was 13.3 µM.

As to `COC1C(O)C(C)OC(OC2C(Oc3cccc4c(O)c5c(=O)oc6ccc(C)c7c(=O)oc(c34)c5c67)OC(C)C(O)C2O)C1O` (configuration not stated), the AC35 is 6.33 µM.

For `CC1=NN(c2ccccc2)C(=O)/C1=C\C=C\c1ccccc1`, the AC35 is 3.99 µM.

As to `COC(=O)C[C@H]1CC[C@H]2[C@H](COc3ccc(NC(=O)Nc4cccc(Cl)c4)cc3C(=O)N2C)O1`, the AC35 was 13.6 µM.

For the compound `O=C1c2ccc3c4c(ccc(c24)C(=O)N1c1cccc(O)c1)C(=O)N(c1cccc(O)c1)C3=O`, the AC35 was 2.47 µM.

For `COc1ccc(NC(=O)N2CCCCN3[C@H](CO)[C@H](c4ccc(C#CCC(C)C)cc4)[C@H]3C2)cc1`, the AC35 was 6.47 µM.

For the compound `Oc1[nH]c2ccc(Br)cc2c1N=NC(=S)N1CCOCC1`, the AC35 was 0.236 µM.

Turning to `Cc1ccccc1S(=O)(=O)N1CC[C@@H]2[C@@H](CO)Nc3ccc(-c4ccc(C#N)cc4)cc3[C@@H]21`, the AC35 is 4.47 µM.

For `COc1ccc(/C=C2\Oc3ccccc3C2=O)cc1`, the AC35 was 22.9 µM.

As for `C[C@H](CO)N1C[C@H](C)[C@H](CN(C)Cc2ccc(Oc3ccccc3)cc2)Oc2ccc(NC(=O)Cn3cnnn3)cc2CC1=O`, the AC35 is 8.16 µM.

As for `C=C1C(=O)O[C@@H]2[C@H]1[C@@H](OC(=O)/C(C)=C/C)C/C(C)=C\C(=O)/C=C(\C)[C@@H]2O`, the AC35 was 3.23 µM.

As for `C[C@H]1CN([C@@H](C)CO)C(=O)c2cc(N(C)C)ccc2O[C@H]1CN(C)Cc1ccc(C(=O)Nc2ccccc2N)cc1`, the AC35 is 8.84 µM.

Consider `S=c1[nH]nc(-c2cc(-c3ccccc3)n[nH]2)n1/N=C/C(Br)=C/c1ccccc1`, for which the AC35 was 5.5 µM.

For `O=C(Nc1ccc(F)cc1)N1CCCCN2[C@@H](CO)[C@H](c3ccc(C4=CCCCC4)cc3)[C@@H]2C1`, the AC35 is 10.2 µM.

On to `C[C@H](CO)N1C[C@H](C)[C@H](CN(C)Cc2ccc(C(F)(F)F)cc2)Oc2ccc(NC(=O)CCCCCC(=O)Nc3ccccc3N)cc2CC1=O`, for which the AC35 was 7.93 µM.

`COC(=O)C[C@@H]1CC[C@@H]2[C@@H](COc3ccc(NC(=O)Nc4cccc(F)c4)cc3C(=O)N2C)O1`: the AC35 was 13.5 µM.

For `COC(=O)Cc1[nH]n(-c2nc3ccccc3s2)c(=O)c1C(C)=Nc1ccc(OC)cc1`, the AC35 was 19.2 µM.

In the case of `COc1ccc(S(=O)(=O)N2CCCc3nc(-c4ccc(F)cc4)ccc32)cc1`, the AC35 was 5.35 µM.

Regarding `C[C@@H]1CN([C@H](C)CO)C(=O)c2cc(N(C)C)ccc2O[C@H]1CN(C)Cc1ccc(C(=O)Nc2ccccc2N)cc1`, the AC35 is 16.7 µM.

Take `C[C@H]1CN([C@@H](C)CO)C(=O)c2cccc(NC(=O)CCCCCC(=O)Nc3ccccc3N)c2O[C@@H]1CN(C)Cc1ccc2c(c1)OCO2`: the AC35 is 23.6 µM.

As to `CN1C/C(=C/c2ccsc2)C(=O)/C(=C/c2ccsc2)C1`, the AC35 is 8.67 µM.

Take `Cc1ccc(C(=O)O/N=C(\N)c2ccccn2)cc1`: the AC35 is 17.7 µM.

For the compound `NC(Cc1ccc(C(F)(F)F)cc1)c1csc(NC(=O)Nc2ccccc2Cc2ccccc2)n1` (configuration not stated), the AC35 was 12.8 µM.

As to `Nc1nc(=S)c2[nH]cnc2[nH]1`, the AC35 was 0.814 µM.

For `C[C@@H]1CCCCO[C@H](CN(C)Cc2ccc(C(=O)Nc3ccccc3N)cc2)[C@@H](C)CN([C@@H](C)CO)C(=O)c2cc(NS(=O)(=O)c3ccc(Cl)cc3)ccc2O1`, the AC35 was 8.42 µM.

For the compound `CCOc1cc(N2CCC(O)CC2)ccc1Nc1ncc2c(n1)N(C)c1ccccc1C(=O)N2C`, the AC35 is 21 µM.

For `C[C@@H]1CN([C@H](C)CO)C(=O)CCCn2nncc2CO[C@H]1CN(C)Cc1ccc(Oc2ccccc2)cc1`, the AC35 is 21.1 µM.

In the case of `O=C1NC(=O)N(Cc2ccccc2)C(=O)/C1=C\C=C\c1ccco1`, the AC35 is 5.05 µM.

For `CC(=NNc1ccc2ccccc2n1)c1ccccc1O`, the AC35 was 13.9 µM.

Consider `C=C1C(=O)C=C[C@]2(C)C[C@@H]3OC(=O)[C@](C)(O)[C@H]3C[C@@H]12`, for which the AC35 is 4.67 µM.

For the compound `CCCCC[C@H](C)N1C[C@H](COCc2ccccc2)Oc2cc(N3CC[C@@H](N(C)C)C3)ccc2S1(=O)=O`, the AC35 was 11.7 µM.

Regarding `COc1cccc(CN2CCC2(C)C(=O)Nc2cccc3cccnc23)c1F` (configuration not stated), the AC35 was 14.3 µM.

Take `COc1ccc(/C=C/C(=O)c2cc(F)ccc2OC(=O)c2ccccc2OC)cc1OC`: the AC35 is 4.54 µM.

Take `CN(C)c1ccc(C=c2c3ccccc3n3c2c2c([n+]3C)CCCC2)cc1`: the AC35 was 2.82 µM.

`C[C@H]1CN([C@@H](C)CO)C(=O)c2cc(N(C)C)ccc2O[C@@H]1CN(C)Cc1ccc(C(=O)Nc2ccccc2N)cc1`: the AC35 is 14.1 µM.

As to `Cc1cc(C)cc(N2C(=O)NC(=O)/C(=C\C=C\c3ccco3)C2=O)c1`, the AC35 is 3.84 µM.

Consider `Cc1ccc(C(C(=O)NCc2ccco2)N(C(=O)CNC(=O)c2cccs2)c2c(C)cc(C)cc2C)cc1` (configuration not stated), for which the AC35 was 14.6 µM.

Regarding `C[C@@H]1CN([C@@H](C)CO)C(=O)c2cccc(NS(=O)(=O)c3ccc(Cl)cc3)c2O[C@@H]1CN(C)Cc1ccc(C(=O)Nc2ccccc2N)cc1`, the AC35 was 8.47 µM.

For `CC(C)CC#Cc1ccc([C@@H]2[C@@H](CO)N3CCCCN(S(=O)(=O)c4ccc(F)cc4)C[C@H]23)cc1`, the AC35 was 8.8 µM.
